Source: the supplement of paper PMC10307832

Assays:
Experiment in all cases: relative viability (nuclei count vs DMSO), 5 days (fraction); higher = more cells survive
[1] = compound: CCn1c(-c2nonc2N)nc2c(C#CC(C)(C)O)ncc(OC[C@H]3CCCNC3)c21 + N=C(N)NC(=N)NCCc1ccccc1 [Phenformin] (partner 250 µM)
Procedure, shortened: (§1)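 Lung cancer cell lines in 1536-well plates were dosed by pin tool the day after seeding, either with one drug alone or with a fixed anchor-drug dose plus five library-drug doses (not always all listed) in √10 steps. After 5 days, cells were fixed and their nuclei stained in one step (final 0.05% Triton X-100, 1% formaldehyde, 1 ug/ml Hoechst), then counted on 4× images. Relative viability is the nuclei count in treated wells divided by that in vehicle wells. Values are medians of duplicate plates.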

[2] = compound: CCn1c(-c2nonc2N)nc2c(C#CC(C)(C)O)ncc(OC[C@H]3CCCNC3)c21 + COc1cc2c(Oc3ccc(NC(=O)C4(C(=O)Nc5ccc(F)cc5)CC4)cc3F)ccnc2cc1OCCCN1CCOCC1 [Foretinib] (partner 0.25 µM)
Procedure, shortened: as §1

BAM7 + Alpelisib = compound: CCOC1=CC=CC=C1N=NC2=C(NN(C2=O)C3=NC(=CS3)C4=CC=CC=C4)C [BAM7] + Cc1nc(NC(=O)N2CCC[C@H]2C(N)=O)sc1-c1ccnc(C(C)(C)C(F)(F)F)c1 [Alpelisib] (partner 2 µM)
Procedure, shortened: as §1

BAM7 + Dasatinib = compound: CCOC1=CC=CC=C1N=NC2=C(NN(C2=O)C3=NC(=CS3)C4=CC=CC=C4)C [BAM7] + Cc1nc(Nc2ncc(C(=O)Nc3c(C)cccc3Cl)s2)cc(N2CCN(CCO)CC2)n1 [Dasatinib] (partner 0.075 µM)
Procedure, shortened: as §1

Row | Cell Line | relative viability ([1]; first compound 0.01 µM) | relative viability ([1]; first compound 0.03162 µM) | relative viability ([1]; first compound 0.1 µM) | relative viability ([1]; first compound 0.3162 µM) | relative viability ([1]; first compound 1 µM) | relative viability ([2]; first compound 0.01 µM) | relative viability ([2]; first compound 0.1 µM) | relative viability ([2]; first compound 0.3162 µM) | relative viability ([2]; first compound 1 µM) | relative viability (BAM7 + Alpelisib; first compound 0.5 µM) | relative viability (BAM7 + Alpelisib; first compound 5 µM) | relative viability (BAM7 + Alpelisib; first compound 15.81 µM) | relative viability (BAM7 + Alpelisib; first compound 50 µM) | relative viability (BAM7 + Dasatinib; first compound 0.5 µM) | relative viability (BAM7 + Dasatinib; first compound 5 µM) | relative viability (BAM7 + Dasatinib; first compound 15.81 µM) | relative viability (BAM7 + Dasatinib; first compound 50 µM) | relative viability ([2]; first compound 0.03162 µM)
1 | 201T | 0.455 | 0.438 | 0.437 | 0.435 | 0.431 | 1.14 | 1.14 | 1.09 | 0.995 | 1.05 | 1.05 | 0.825 | 1.01 | 0.659 | 0.56 | 0.461 | 0.497 | –
2 | A549 | 0.197 | 0.212 | 0.164 | 0.17 | 0.154 | 0.92 | 0.886 | 0.843 | 0.845 | 0.872 | 0.722 | 0.846 | 0.845 | – | – | – | – | 1.08
3 | A-427 | 0.315 | 0.387 | 0.263 | 0.339 | 0.326 | 0.978 | 1.1 | 0.981 | 0.991 | 0.687 | 1.16 | 1.11 | 1.06 | 0.845 | 0.71 | 0.664 | 0.826 | 1.23
4 | ABC-1 | 0.244 | 0.204 | 0.236 | 0.228 | 0.255 | 1.04 | 1.01 | 0.813 | 1.08 | 1.37 | 0.968 | 0.851 | 0.914 | 0.675 | 0.624 | 0.496 | 0.61 | 1.28
5 | BEN | 0.276 | 0.292 | 0.28 | 0.297 | 0.287 | 0.615 | 0.7 | 0.686 | 0.683 | 1.11 | 0.948 | 0.903 | 1.08 | 0.351 | 0.351 | 0.323 | 0.42 | 0.467
6 | CAL-12T | 0.506 | 0.579 | 0.588 | 0.554 | 0.469 | 1.15 | 1.05 | 1.05 | 1.07 | 1.21 | 1.19 | 1 | 1.39 | 0.507 | 0.326 | 0.402 | 0.337 | 1.05
7 | COR-L23 | 0.444 | 0.399 | 0.422 | 0.373 | 0.389 | 0.835 | 0.903 | 1.02 | 1 | 0.804 | 0.714 | 0.685 | 0.752 | 0.476 | 0.481 | 0.385 | 0.502 | 1.08
8 | COR-L 105 | 0.407 | 0.516 | 0.468 | 0.417 | 0.463 | 1.01 | 1.04 | 1.03 | 1.16 | 1.01 | 1.06 | 0.967 | 0.981 | 0.308 | 0.407 | 0.455 | 0.501 | 1
9 | Calu-6 | – | – | – | – | – | 0.85 | 0.866 | 0.824 | 0.942 | 0.986 | 0.931 | 0.932 | 1.11 | – | – | – | – | 0.86
10 | ChaGo-K-1 | 0.462 | 0.508 | 0.502 | 0.438 | 0.469 | 0.802 | 0.852 | 0.911 | 0.896 | – | – | – | – | 0.641 | 0.523 | 0.507 | 0.726 | 0.849
11 | EBC-1 | – | – | – | – | – | 0.106 | 0.0934 | 0.102 | 0.0999 | 1.05 | 0.805 | 0.814 | 0.953 | – | – | – | – | 0.0912
12 | EKVX | 0.232 | 0.231 | 0.217 | 0.217 | 0.195 | 0.85 | 0.723 | 0.797 | 0.75 | 0.891 | 0.794 | 0.513 | 0.597 | 0.604 | 0.586 | 0.31 | 0.41 | 0.809
13 | EMC-BAC-2 | 0.487 | 0.491 | 0.578 | 0.502 | 0.52 | 1.06 | 0.952 | 0.973 | 1.01 | 0.801 | 0.778 | 0.713 | 0.772 | 0.301 | 0.366 | 0.331 | 0.394 | 1.02
14 | EPLC-272H | 0.275 | 0.333 | 0.32 | 0.291 | 0.255 | 0.657 | 0.675 | 0.632 | 0.738 | 1.08 | 0.802 | 0.877 | 0.831 | 0.369 | – | 0.346 | 0.434 | 0.711
15 | H3255 | 0.403 | 0.406 | 0.342 | 0.338 | 0.329 | 0.833 | 0.891 | 0.875 | 0.777 | 0.691 | 0.673 | 0.649 | 0.734 | 0.397 | 0.34 | 0.483 | 0.788 | 0.826
16 | HARA | 0.361 | 0.445 | 0.426 | 0.451 | 0.495 | 0.848 | 0.864 | 0.833 | 0.876 | 0.879 | 0.816 | 0.594 | 0.847 | 0.293 | 0.403 | 0.291 | 0.328 | 1.01
17 | HCC-15 | 0.439 | 0.502 | 0.456 | 0.395 | 0.404 | 0.995 | 1.05 | 0.903 | 0.92 | 0.907 | 0.923 | 0.883 | 0.853 | 0.594 | 0.574 | 0.617 | 0.565 | 1.04
18 | HCC-44 | 0.19 | 0.183 | 0.194 | 0.184 | 0.189 | – | – | – | – | 0.829 | 0.708 | 0.702 | 0.735 | – | – | – | – | –
19 | HCC-78 | 0.655 | 0.755 | 0.711 | 0.588 | 0.67 | 0.515 | 0.539 | 0.532 | 0.527 | 0.395 | 0.21 | 0.294 | 0.365 | 0.502 | 0.276 | 0.424 | 0.306 | 0.523
20 | HCC-366 | 0.573 | 0.606 | 0.637 | 0.62 | 0.617 | 0.931 | 0.975 | 0.907 | 0.965 | 0.403 | 0.318 | 0.324 | 0.322 | 0.67 | 0.675 | 0.708 | 0.717 | 0.99
